# Source: paper PMC9238271, “The quorum sensing peptide EntF* promotes colorectal cancer metastasis in mice: a new factor in the host-microbiome interaction” (BMC Biology, 2022)
# Tests used:
# [1] = Serum kinetic profile and daily EntF* exposure after i.p. injection; type: in vivo, female Swiss nu/nu mice
# Procedure: (§1) Fifty microliters of serum were mixed with 150 μL 0.5% formic acid in acetonitrile. After sonication for 5 min, samples were vortexed for 5 s, then heated for 30 s at 100 °C. The solution was vortexed and centrifuged for 20 min at 20,000g at 4 °C. The supernatant was purified using solid phase extraction (SPE) on HyperSep C18 plates (Thermo Fisher Scientific, Belgium), previously conditioned with acetonitrile and equilibrated with 75% acetonitrile in water, containing 0.375% formic acid. After loading 150 μL of each sample, 120 μL eluent were collected and organic solvents evaporated using nitrogen (1 L/min) for 5 min. The resulting samples were further diluted with 30 μL of BSA-based anti-adsorption solution, and analyzed by LC-MS.
# (§2) EntF* was detected and quantified on a Waters Acquity® UPLC H-class system, connected to a Waters Xevo™ TQ-S triple quadrupole mass spectrometer with electrospray ionization (operated in positive ionization mode). Autosampler tray and column oven were kept at 10 ± 5 °C and 60 ± 5 °C, respectively. Chromatographic separation was achieved on a Waters Acquity® UPLC BEH Peptide C18 column (300 Å, 1.7 μm, 2.1 mm × 100 mm). The mobile phases consisted of 93/2/5 water/acetonitrile/DMSO (V/V/V) containing 0.1% formic acid (mobile phase A) and 2/93/5 water/acetonitrile/DMSO (V/V/V) containing 0.1% formic acid (mobile phase B), and the flow rate was set to 0.5 mL/min. A 10-μL aliquot from each sample was injected. The gradient program started with 80% of mobile phase A for 1 min, followed by a linear gradient to 40% of mobile phase A for 3.5 min. Gradient was then changed to 14.2% mobile phase A at 5 min, followed by a 1 min equilibration, before starting conditions were applied. EntF* retention time was between 4.25 and 4.45 min.
# To calculate daily peptide exposure, female Swiss nu/nu mice (n = 14) were i.p. injected with 25 μL of 100 μM EntF*, their serum withdrawn at different time points and analyzed by LC1-MS1. A distribution and early exponential phase (α, 0-30 min), followed by a terminal elimination phase (β, 30–180 min) could be distinguished. The exposure was determined over a period of 24 h (x) as follows: ExposurenMxmin=∫030Ae^-αt+∫30xBe^-βt .
# [2] = tested on: E-cadherin expression in HT-29 cells; assay: Western blot of E-cadherin expression, HT-29 cells; type: cell-based
# Procedure: HCT-8, HT-29, and HT-116 cells were grown in DMEM medium supplied with 10% fetal bovine serum (FBS) and 1% penicillin-streptomycin. Caco-2 cells were grown in DMEM medium supplied with 10% FBS, 1% non-essential amino acid NEAA), and 1% penicillin-streptomycin. Cells were cultured at 37 °C and 5% CO2. As cells reached confluency, they were detached using 0.25% Trypsin-EDTA.
# For Western blot analyses, HCT-8 (n = 15), HCT-116 (n = 12), Caco-2 (n = 6), and HT-29 (n = 12) cells were seeded in 6-well plates at a density of 1 × 10^6 cells/well. Twenty-four hours after seeding, all cell lines were treated with 1 μM EntF* or a placebo solution. HCT-8 cells were also tested for responsiveness to 1 μM EntF* synthetic alanine-derived analogs. For antagonist activity analysis, HCT-8 cells were treated with 1 μM Nef-M1 or 1 μM EntF*A1 alone or in combination with 500 nM EntF*. After 24 h, cells were detached from the surface and lysed in RIPA buffer (Thermo Scientific). Protein concentration was determined using the modified Lowry protein assay kit (Thermo Scientific), according to the manufacturer’s instructions. Protein samples were diluted to the same concentration (4 μg/μL) with water and diluted again 1:1 using 2x Laemmli buffer. After that, samples were boiled for 5 min at 95 °C to denature proteins and centrifuged for 5 min at 16,000g; supernatants were used for Western blot analyses. Equal amounts of total protein (20 μg/lane) were separated by SDS-PAGE on an Any kD^TM gel (Bio-Rad ) and then transferred to a PVDF membrane. Before incubation with antibodies, non-specific binding sites on the membranes were blocked using 5% skimmed milk solution (1 h). TBS buffer with 0.05% Tween 20 was used for all washing steps. Membranes were incubated overnight at 4 °C with an anti-E-cadherin primary antibody (1/1000 dilution). An HRP-conjugated anti-rabbit antibody (1/2000 dilution, 1 h incubation) was used for chemiluminescent detection. Membranes were incubated with the detection substrate for 5 min and signal detection was performed using the ChemiDoc EZ imager and Image Lab software (Bio-Rad). […]
# [3] = EntF* in serum of untreated mice, RP-UPLC-TQ-MS (LC1-MS1); type: in vivo, C57BL/6 mice; details: for EntF* concentration (pM) LC1-MS1: mouse serum, LOQ = 100 pM, below: set at 0
# Procedure: After a 30 min incubation on ice, blood was centrifuged at 1000g for 10 min at room temperature. The supernatant (serum) was then transferred to fresh tubes and stored at − 35 °C until use.
# as §1, §2
# An optimized capillary voltage of 3.00 kV, a cone voltage of 20.00 V, and a source offset of 50.0 V were used. Acquisition was done in the MRM mode. The selected precursor ion for EntF* was m/z 865.7 with two selected product ions at m/z 202.08 (36 eV, b2 fragment) as quantifier and m/z 315.17 (31 eV, b3 fragment) as qualifier.
# A sample was considered positive for the presence of EntF* when the following criteria were met: correct retention time, quantifier/qualifier peak area ratio between 2.0 and 4.0, both quantifier and qualifier peaks with a signal-to-noise ratio > 3.0, and a peptide concentration > 100 pM.
smiles,measurement,setting,value
"CC(C)C[C@@H]1NC(=O)[C@H](CO)NC(=O)[C@H](Cc2ccccc2)NC(=O)[C@H](C(C)C)NC(=O)[C@@H](NC(=O)[C@H](CCC(=O)O)NC(=O)[C@@H](NC(=O)[C@H](CC(C)C)NC(=O)[C@H](CC(N)=O)NC(=O)[C@@H](N)CO)C(C)C)CSSC[C@@H](C(=O)N[C@@H](CC(N)=O)C(=O)O)NC(=O)[C@H](CCCCN)NC(=O)[C@H](CCCCN)NC(=O)[C@H](Cc2ccccc2)NC1=O (single isomer, unassigned) [EntF*]","Daily exposure during CRC experiment, Exposure (nM*min), Distribution phase",[1]; after 100 nmol kg-1 EntF* i.p. injection,74.91 nM·min
same,"Distribution phase, serum level, Average","[1]; after 100 nmol kg-1 EntF* i.p. injection, 5 min, mean of n = 4",4.2292
same,"Distribution phase, serum level, Average","[1]; after 100 nmol kg-1 EntF* i.p. injection, 10 min, mean of n = 4",2.596
same,"Distribution phase, serum level, Average","[1]; after 100 nmol kg-1 EntF* i.p. injection, 15 min, mean of n = 4",2.427
same,"Elimination phase, serum level, Average","[1]; after 100 nmol kg-1 EntF* i.p. injection, 60 min, mean of n = 4",0.2851
same,"Elimination phase, serum level, Average","[1]; after 100 nmol kg-1 EntF* i.p. injection, 120 min, mean of n = 4",0.389
same,level at time molar at 0.5 h,"[1]; female, Swiss nu/nu, mouse, serum, ip, after 100 nmol kg-1 EntF* i.p. injection, 30 min, mean of n = 4, read-out: Distribution phase / Elimination phase, serum level, Average",0.854 nM
same,level at time molar at 3 h,"[1]; female, Swiss nu/nu, mouse, serum, ip, after 100 nmol kg-1 EntF* i.p. injection, 180 min, mean of n = 4, read-out: Elimination phase, serum level, Average",0.195 nM
same,EntF* serum concentration,"[1]; serum, 5 min after i.p. injection, Xgem (mean of 4 values)",4.2292 nM
same,EntF* serum concentration,"[1]; serum, 10 min after i.p. injection, Xgem (mean of 4 values)",2.5962 nM
same,EntF* serum concentration,"[1]; serum, 15 min after i.p. injection, Xgem (mean of 4 values)",2.4271 nM
same,EntF* serum concentration,"[1]; serum, 30 min after i.p. injection, Xgem (mean of 4 values)",0.8544 nM
same,EntF* serum concentration,"[1]; serum, 60 min after i.p. injection, Xgem (mean of 4 values)",0.2851 nM
same,EntF* serum concentration,"[1]; serum, 120 min after i.p. injection, Xgem (mean of 4 values)",0.3890 nM
same,EntF* serum concentration,"[1]; serum, 180 min after i.p. injection, replicate X1,2",0.4699 nM
same,EntF* serum concentration,"[1]; serum, 180 min after i.p. injection, replicate X2,2",0.5336 nM
same,effect on E-cadherin expression in HT-29 cells,"[2]; 1 μM EntF* or CXCL12, 24 h, n = 12",statistically significant reduction
same,"Relative E-cadherin expression, average","[2]; HT-29 cells, average of n = 12",73.7
same,"in vivo exposure, average",[3]; All mice average (<LoD => 0),0.019 nM
same,"in vivo exposure, Exposure","[3]; All mice average (<LoD => 0), time 1440 min",27.5 nM·min
same,"Concentration (pM), average","[3]; Natural in vivo exposure, average of all samples, < LOD: set at 0 pM",19.1243 pM
same,Concentration (pM),"[3]; Natural in vivo exposure, sample 10809_069_205",107.331 pM
same,Concentration (pM),"[3]; Natural in vivo exposure, sample 10809_069_269",431.362 pM
same,Concentration (pM),"[3]; Natural in vivo exposure, sample 10809_069_276",567.385 pM
same,Concentration (pM),"[3]; Natural in vivo exposure, sample 10809_069_296",136.998 pM
same,"EntF* concentration in mouse serum, Average (pM), All","[3]; all samples (n=35), samples < LOQ counted as zero",328.6 pM
same,amount of EntF* detected in the serum of positive mice,"[3]; endogenous level, six of 35 untreated C57BL/6 mice, LOQ 100 pM, LC1-MS1",above 100 pM
same,EntF* concentration (pM) LC1-MS1,[3]; sample 20181011S4,389 pM
same,EntF* concentration (pM) LC1-MS1,[3]; sample 20181011S7,2146 pM
same,EntF* concentration (pM) LC1-MS1,[3]; sample 20181011S9,3127 pM
same,EntF* concentration (pM) LC1-MS1,[3]; sample 20181011S12,2489 pM
same,EntF* concentration (pM) LC1-MS1,[3]; sample 20181011S16,3148 pM
same,EntF* concentration (pM) LC1-MS1,[3]; sample 20181011S18,200 pM
